Consider 32 compounds from ChEMBL document CHEMBL5291721, “A preclinical secondary pharmacology resource illuminates target-adverse drug reaction associations of marketed drugs” (Nat Commun, 2023).

Structures are written as SMILES.

In assay [1] the target is T1, Corticotropin-releasing factor receptor 2 (Homo sapiens, UniProt Q13324).
T1 sequence (Q13324 whole entry): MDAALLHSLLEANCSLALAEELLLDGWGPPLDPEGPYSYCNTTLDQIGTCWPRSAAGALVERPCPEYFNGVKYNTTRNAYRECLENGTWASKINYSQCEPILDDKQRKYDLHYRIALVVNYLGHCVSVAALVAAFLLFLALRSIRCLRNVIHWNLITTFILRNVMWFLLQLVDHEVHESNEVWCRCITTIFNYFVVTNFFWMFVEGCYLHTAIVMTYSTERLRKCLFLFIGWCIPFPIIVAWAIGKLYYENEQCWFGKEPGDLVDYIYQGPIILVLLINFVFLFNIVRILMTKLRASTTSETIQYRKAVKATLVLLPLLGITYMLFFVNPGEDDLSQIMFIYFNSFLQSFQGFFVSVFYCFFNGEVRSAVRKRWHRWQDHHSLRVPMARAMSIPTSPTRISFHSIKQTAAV

The target in assay [2] is 5-hydroxytryptamine receptor 2B (Homo sapiens, UniProt P41595).
Sequence of 5-hydroxytryptamine receptor 2B (P41595 whole entry): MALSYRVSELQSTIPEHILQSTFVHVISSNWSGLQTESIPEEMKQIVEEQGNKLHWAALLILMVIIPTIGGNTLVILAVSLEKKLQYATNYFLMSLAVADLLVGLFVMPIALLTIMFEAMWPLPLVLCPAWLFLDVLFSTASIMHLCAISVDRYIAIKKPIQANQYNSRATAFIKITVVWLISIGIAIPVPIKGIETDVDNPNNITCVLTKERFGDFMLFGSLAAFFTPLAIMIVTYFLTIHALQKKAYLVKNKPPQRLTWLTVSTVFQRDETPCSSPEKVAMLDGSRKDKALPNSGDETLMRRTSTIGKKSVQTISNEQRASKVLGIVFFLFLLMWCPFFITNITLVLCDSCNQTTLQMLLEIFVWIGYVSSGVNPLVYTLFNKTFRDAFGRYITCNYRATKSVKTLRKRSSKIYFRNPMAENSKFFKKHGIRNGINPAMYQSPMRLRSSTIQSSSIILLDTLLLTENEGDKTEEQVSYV
Assay [3] has as its target T2, Neuropeptide Y receptor type 2 (Homo sapiens, UniProt P49146).
T2 sequence (P49146 whole entry): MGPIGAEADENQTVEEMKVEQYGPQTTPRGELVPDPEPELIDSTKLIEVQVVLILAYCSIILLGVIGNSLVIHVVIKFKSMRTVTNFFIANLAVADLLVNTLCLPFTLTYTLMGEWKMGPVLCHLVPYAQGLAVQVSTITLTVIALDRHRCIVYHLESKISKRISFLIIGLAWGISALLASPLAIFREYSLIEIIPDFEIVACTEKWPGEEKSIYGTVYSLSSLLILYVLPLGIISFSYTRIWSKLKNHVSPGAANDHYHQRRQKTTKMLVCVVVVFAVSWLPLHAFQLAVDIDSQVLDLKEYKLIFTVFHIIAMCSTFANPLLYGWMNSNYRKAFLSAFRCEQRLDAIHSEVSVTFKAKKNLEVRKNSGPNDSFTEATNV

Assay [4] deals with Neurotensin receptor type 1 (Homo sapiens, UniProt P30989).
Sequence of Neurotensin receptor type 1 (P30989 whole entry): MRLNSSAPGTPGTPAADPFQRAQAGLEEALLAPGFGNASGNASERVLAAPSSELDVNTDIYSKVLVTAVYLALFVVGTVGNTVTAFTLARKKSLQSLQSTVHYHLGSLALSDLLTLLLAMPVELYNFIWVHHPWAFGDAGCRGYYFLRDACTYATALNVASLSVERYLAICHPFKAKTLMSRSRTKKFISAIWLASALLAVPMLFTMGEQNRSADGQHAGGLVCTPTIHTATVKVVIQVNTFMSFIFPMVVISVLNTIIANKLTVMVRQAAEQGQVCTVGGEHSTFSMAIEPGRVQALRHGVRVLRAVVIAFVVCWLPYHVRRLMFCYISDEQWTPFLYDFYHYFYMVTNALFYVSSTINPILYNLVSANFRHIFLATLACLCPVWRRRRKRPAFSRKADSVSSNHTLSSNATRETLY
The target of assay [5] is T3, Alpha-1A adrenergic receptor (Homo sapiens, UniProt P35348).
T3 sequence (P35348 whole entry): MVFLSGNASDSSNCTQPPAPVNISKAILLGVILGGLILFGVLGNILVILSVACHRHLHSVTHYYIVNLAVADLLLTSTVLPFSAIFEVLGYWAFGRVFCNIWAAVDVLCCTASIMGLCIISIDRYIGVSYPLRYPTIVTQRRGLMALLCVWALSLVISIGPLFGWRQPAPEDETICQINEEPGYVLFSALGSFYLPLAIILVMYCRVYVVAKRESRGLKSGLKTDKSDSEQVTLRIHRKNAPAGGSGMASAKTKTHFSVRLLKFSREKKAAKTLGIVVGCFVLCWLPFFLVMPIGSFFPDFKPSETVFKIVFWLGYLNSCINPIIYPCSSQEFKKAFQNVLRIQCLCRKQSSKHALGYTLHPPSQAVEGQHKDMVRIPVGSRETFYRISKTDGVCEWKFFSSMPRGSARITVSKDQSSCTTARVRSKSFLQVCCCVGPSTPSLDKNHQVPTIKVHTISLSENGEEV

Assay [6] deals with T4, Alpha-2A adrenergic receptor (Homo sapiens, UniProt P08913).
T4 sequence (P08913 whole entry): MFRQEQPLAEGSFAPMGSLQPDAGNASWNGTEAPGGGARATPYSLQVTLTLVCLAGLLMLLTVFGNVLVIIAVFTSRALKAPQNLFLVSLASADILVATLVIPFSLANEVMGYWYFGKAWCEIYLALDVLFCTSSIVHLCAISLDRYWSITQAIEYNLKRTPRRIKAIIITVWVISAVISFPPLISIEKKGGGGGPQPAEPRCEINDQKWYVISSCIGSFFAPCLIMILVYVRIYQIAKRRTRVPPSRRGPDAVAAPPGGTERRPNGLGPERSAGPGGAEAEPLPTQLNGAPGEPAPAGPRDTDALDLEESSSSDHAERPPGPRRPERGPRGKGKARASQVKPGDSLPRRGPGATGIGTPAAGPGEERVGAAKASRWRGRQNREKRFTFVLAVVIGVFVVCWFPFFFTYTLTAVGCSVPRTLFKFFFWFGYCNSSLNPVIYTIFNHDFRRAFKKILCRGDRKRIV

Assay [7] addresses T5, Muscarinic acetylcholine receptor M1 (Homo sapiens, UniProt P11229).
T5 sequence (P11229 whole entry): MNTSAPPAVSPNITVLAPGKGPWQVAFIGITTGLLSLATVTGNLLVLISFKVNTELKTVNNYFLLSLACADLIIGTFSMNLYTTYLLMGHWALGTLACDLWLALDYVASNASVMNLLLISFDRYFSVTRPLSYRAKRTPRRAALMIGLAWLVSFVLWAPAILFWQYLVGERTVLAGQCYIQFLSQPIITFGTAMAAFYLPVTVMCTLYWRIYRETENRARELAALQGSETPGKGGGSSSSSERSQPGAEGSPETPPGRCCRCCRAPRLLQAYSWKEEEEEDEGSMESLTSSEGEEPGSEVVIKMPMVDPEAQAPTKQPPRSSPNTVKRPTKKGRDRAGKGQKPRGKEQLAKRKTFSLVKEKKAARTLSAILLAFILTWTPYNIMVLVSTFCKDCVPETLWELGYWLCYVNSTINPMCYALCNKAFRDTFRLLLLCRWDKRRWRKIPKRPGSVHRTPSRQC
Type of assay: functional, cell-based.
Also: assay procedure not described here.

Regarding `CCc1nn(CCCN2CCN(c3cccc(Cl)c3)CC2)c(=O)n1CCOc1ccccc1` [NEFAZODONE], the concentration at half-maximal activity (AC50) in assay [1] was above 30 µM; in assay [2], 0.084 µM; in assay [3], above 30 µM; in assay [4], above 30 µM; in assay [5], 0.13 µM.
With `NC(N)=Nc1nc(CSCCC(N)=NS(N)(=O)=O)cs1` [FAMOTIDINE], the AC50 in assay [1] was above 30 µM; in assay [2], above 10 µM; in assay [3], above 30 µM; in assay [4], above 30 µM; in assay [6], above 10 µM; in assay [5], above 10 µM.
For `NS(=O)(=O)c1cc2c(cc1Cl)NCNS2(=O)=O` [HYDROCHLOROTHIAZIDE], the half-maximal activity concentration (AC50) in assay [1] is above 30 µM; in assay [2], 6.91 µM; in assay [3] it was above 30 µM; in assay [4], above 30 µM; in assay [6], above 10 µM; in assay [5], above 10 µM.
The compound `O=C1c2ccccc2C(=O)C1C(=O)C(c1ccccc1)c1ccccc1` [DIPHENADIONE] registered an AC50 in assay [7] above 3 µM.
`CCOC(=O)[C@H](CCc1ccccc1)N[C@@H](C)C(=O)N1CCC[C@H]1C(=O)O`: the AC50 is above 30 µM in assay [1]; above 10 µM in assay [2]; above 30 µM in assay [3]; above 30 µM in assay [4]; above 10 µM in assay [6]; above 10 µM in assay [5].
In turn, `O=C1c2c(O)c(=O)ccn2N([C@@H]2c3ccccc3SCc3c2ccc(F)c3F)[C@@H]2COCCN12` [BALOXAVIR] displayed an AC50 in assay [7] above 30 µM.
For `CCC[C@@H]1C[C@@H](C(=O)N[C@@H]([C@H]2O[C@H](SC)[C@H](O)[C@@H](O)[C@H]2O)[C@H](C)Cl)N(C)C1` [CLINDAMYCIN], the AC50 in assay [1] is above 30 µM; in assay [2], above 10 µM; in assay [3] it was above 30 µM; in assay [4], above 30 µM; in assay [6] it was above 10 µM; in assay [5], above 10 µM.
`CCC(=O)c1c(O)cc(O)cc1O` [FLOPROPIONE] yielded a half-maximal activity concentration (AC50) in assay [7] above 30 µM.
In the case of `CCc1ccc(CCOc2ccc(CC3SC(=O)NC3=O)cc2)nc1` (configuration not stated) [PIOGLITAZONE], the AC50 in assay [1] is above 30 µM; in assay [2], above 10 µM; in assay [3], above 30 µM; in assay [4] it was above 30 µM; in assay [6] it was 7.05 µM; in assay [5] it was above 10 µM.
As to `Nc1nc(N)c2nc(-c3ccccc3)c(N)nc2n1`, the AC50 in assay [1] was above 30 µM; in assay [2] it was above 10 µM; in assay [3], above 30 µM; in assay [4], above 30 µM; in assay [6], above 10 µM; in assay [5] it was above 10 µM.
Compound `CN(C)C(=O)Oc1ccc[n+](C)c1` [PYRIDOSTIGMINE] returned an AC50 in assay [7] above 30 µM.
Still for that read-out and setting: in the case of `CC(C)OC(=O)[C@H](C)N[P@](=O)(OC[C@H]1O[C@@H](n2ccc(=O)[nH]c2=O)[C@](C)(F)[C@@H]1O)Oc1ccccc1` [SOFOSBUVIR] it was above 30 µM; in that of `CC(N/C(=N\C#N)Nc1ccncc1)C(C)(C)C` (configuration not stated) [PINACIDIL ANHYDROUS], above 30 µM.
`COc1cc(Nc2c(C#N)cnc3cc(OCCCN4CCN(C)CC4)c(OC)cc23)c(Cl)cc1Cl` [BOSUTINIB]: the AC50 in assay [7] is above 3 µM; in assay [1], above 30 µM; in assay [3], above 30 µM; in assay [4], above 30 µM; in assay [6] it was 6.01 µM.
Consider `NC(=O)c1cnccn1` [PYRAZINAMIDE], for which the AC50 in assay [1] was above 30 µM; in assay [2] it was above 10 µM; in assay [3], above 30 µM; in assay [4] it was above 30 µM; in assay [6], above 10 µM; in assay [5], above 10 µM.
As to `COc1cc2c(cc1OC)C(=O)C(CC1CCN(Cc3ccccc3)CC1)C2` (configuration not stated) [DONEPEZIL], the AC50 is 5.32 µM in assay [7]; above 30 µM in assay [1]; above 30 µM in assay [3]; above 30 µM in assay [4]; 10.4 µM in assay [6].
In turn, `CCOC(=O)c1ccc(O)cc1` [ETHYLPARABEN] yielded an AC50 in assay [7] above 30 µM.
In turn, `CCO/N=C(\C(=O)N[C@@H]1C(=O)N2C(C(=O)[O-])=C(Sc3nc(-c4cc[n+](C)cc4)cs3)CS[C@H]12)c1nsc(N)n1` [CEFTAROLINE] registered an AC50 in assay [7] above 30 µM.
`Cc1ccc(O)c2ncccc12` [TILIQUINOL] registered a concentration at half-maximal activity (AC50) in assay [7] above 30 µM.
Still for that read-out and setting: in the case of `CC(=O)Oc1c(C)cc(OCC(O)CNC(C)C)c(C)c1C` (configuration not stated) [METIPRANOLOL] it was above 30 µM.
`CC(C)NCC(O)COc1ccc(COCCOC(C)C)cc1` (configuration not stated) [BISOPROLOL]: the AC50 is above 30 µM in assay [1]; above 10 µM in assay [2]; above 30 µM in assay [3]; above 30 µM in assay [4]; above 10 µM in assay [6]; above 10 µM in assay [5].
Turning to `C#C[C@]1(O)CC[C@H]2[C@@H]3CCc4cc(O)ccc4[C@H]3CC[C@@]21C` [ETHINYL ESTRADIOL], the concentration at half-maximal activity (AC50) is above 30 µM in assay [1]; above 30 µM in assay [2]; above 30 µM in assay [3]; above 30 µM in assay [4]; above 10 µM in assay [6]; above 10 µM in assay [5].
In assay [7], `C(=N\NC1=NCCN1)/c1c2ccccc2c(/C=N/NC2=NCCN2)c2ccccc12` [BISANTRENE] registered an AC50 of 6.37 µM.
As to `CN(C)CCCN1c2ccccc2CCc2ccc(Cl)cc21` [CLOMIPRAMINE], the AC50 in assay [6] was above 10 µM.
With `Oc1ncnc2[nH]ncc12` [ALLOPURINOL], the AC50 in assay [1] is above 30 µM; in assay [2], above 10 µM; in assay [3], above 30 µM; in assay [4], above 30 µM; in assay [6], above 10 µM; in assay [5], above 10 µM.
As for `O=C(CCCCCCC(=O)Nc1ccccc1)NO` [VORINOSTAT], the AC50 in assay [2], in assay [3], in assay [6] and in assay [5] was above 10 µM in each case.
Turning to `CCOC(=O)N[C@@H]1CC[C@@H]2[C@@H](C1)C[C@H]1C(=O)O[C@H](C)[C@H]1[C@H]2/C=C/c1ccc(-c2cccc(F)c2)cn1` [VORAPAXAR], the AC50 in assay [7] was 26.3 µM.
Same read-out and setting: in the case of `CC(=O)OC[C@H]1O[C@@H](n2ccc(=O)[nH]c2=O)[C@H](OC(C)=O)[C@@H]1OC(C)=O` [URIDINE TRIACETATE] it was above 30 µM.
With `O=C1[C@H](CC[C@H](O)c2ccc(F)cc2)[C@@H](c2ccc(O)cc2)N1c1ccc(F)cc1` [EZETIMIBE], the AC50 in assay [7] stood at 4.55 µM.
In assay [7], `C[N+](C)(C)CCCCCCCCCC[N+](C)(C)C` [DECAMETHONIUM] returned an AC50 above 30 µM.
The same measure, in the same setting: in the case of `O=C(COc1ccc(Cl)cc1)N1CCN(Cc2ccc3c(c2)OCO3)CC1` [FIPEXIDE] it was 6.27 µM.
On the same count and under the same terms, in the case of `O=C(NC[C@H]1CN(c2ccc(N3CCOCC3=O)cc2)C(=O)O1)c1ccc(Cl)s1` [RIVAROXABAN] it was above 3 µM.
